Test results from US6444685B1, “N-(4-sulfonylaryl)Cyclylamine 2-hydroxyethylamines as beta-3 adrenergic receptor agonists” (Wyeth, priority 2000, dated 2002).

Legend:
Assay type in all cases: cell-based
[1] = biological target: T1, human β3 adrenergic receptor (Homo sapiens, UniProt P13945); test: cAMP accumulation (SPA) in CHO cells transfected with human β3 adrenergic receptor; conditions: for EC50: CHO cells expressing human β3-AR, cAMP, 30 min incubation, 10^−9 M to 10^−5 M, read-out: beta-3 EC50; for beta-3 (IA) maximal response relative to isoproterenol: IA = % activity compound / % activity isoproterenol at 10^−5 M, CHO human β3 cells
T1 construct: Full length β3 AR clones (402 amino acids) containing the last 6 amino acids of hβ3— AR are prepared; expressed in transfected cells; host or cells: CHO cells
Protocol: (§1) The ability of compounds of this invention to treat or inhibit disorders related to insulin resistance or hyperglycemia was established with representative compounds of this invention in the following standard pharmacological test procedures, which measured the binding selectivity to the β1, β2, and β3 adrenergic receptors. Binding to the receptors was measured in Chinese Hamster ovary (CHO) cells that were transfected with adrenergic receptors. The following briefly summarizes the procedures used and results obtained.
Cloning of Human β3-AR Genomic DNA: cDNA was constructed by ligating four polymerase chain reaction (PCR) products using the following primers: an ATG-Narl fragment, sense primer 5′-[…]3′ and anti-sense primer 5′[…]3′; a Narl-Accl fragment, 5′[…]3′ as sense and 5′[…]3′ as anti-sense primer; an Accli-Styl fragment, sense primer 5′[…]3′ and anti-sense primer 5′[…]3′ and a Styl-TAG fragment, with sense primer 5′[…]3′ and anti-sense primer 5′[…]3′. The corresponding primer sequences are described in Mantzoros, C. S., et.al., Diabetes 45: 909-914 (1996). The four fragments are ligated into a pUC 18 plasmid (Gibco-BRL) and sequenced. Full length β3 AR clones (402 amino acids) containing the last 6 amino acids of hβ3— AR are prepared with the β3-βARpcDNA3from ATTC.
(§2) Binding Procedure: Clones expressing receptor levels of 70 to 110 fmoles/mg protein were used in the test procedures. CHO cells were grown in 24-well tissue culture plates in Dulbecco's Modified Eagle Media with 10% fetal bovine serum, MEM non-essential amino acids, Penicillin-Streptompycin and Geneticin. On the day of test procedure, growth medium was replaced with preincubation media (Dulbecco's Modified Eagle Media and incubated for 30 minutes at 37° C. Preincubation medium was replaced with 0.2 ml treatment medium containing DMEM media containing 250 μM IBMX (isobutyl-1-methylxantine) plus 1 mM ascorbic acid with test compound dissolved in DMSO. Test compounds were tested over a concentration range of 10^−9 M to 10^−5 M for β3 cells and 10^−8 to 10^−4 M for β1 and β2 transfected cells. Isoproterenol (10^−5 M) was used as an internal standard for comparison of activity. Cells were incubated at 37° C. on a rocker for 30 min with the β3 cells and 15 min for β1 and β2 cells. Incubation was stopped with the addition of 0.2N HCl and neutralized with 2.5N NaOH. The plates, containing the cells and neutralized media, were stored at −20 degrees celsius until ready to test for cAMP using the SPA test kit (Amersham).
(§3) Data Analysis and Results: Data collected from the SPA test procedure were analyzed as per cent of the maximal isoproterenol response at 10^−5 M. Activity curves were plotted using the SAS statistical and graphics software. EC50 values were generated for each compound and the maximal response (IA) developed for each compound is compared to the maximal response of isoproternol at 10^−5 M from the following formula:
(§4) IA=% activity compound/% activity isoproterenol

[2] = biological target: T2, human β2-adrenergic receptor (Homo sapiens, UniProt P07550); test: cAMP accumulation (SPA) in CHO cells transfected with human β2 adrenergic receptor; conditions: for beta-2 (IA) maximal response relative to isoproterenol: IA = % activity compound / % activity isoproterenol at 10^−5 M, CHO human β2 cells; for EC50: CHO cells transfected with human β2-AR, cAMP, 15 min incubation, 10^−8 to 10^−4 M, read-out: beta-2 EC50
T2 construct: expressed in transfected cells; host or cells: CHO cells
Protocol: as §1
(§5) Transfection of CHO cells with β1 and β2 adrenergic receptors: CHO cells were transfected with human β1- or β2-adrenergic receptors as described in Tate, K. M., Eur. J. Biochem., 196:357-361 (1991).
as §2, §3, §4

[3] = biological target: T3, human β1-adrenergic receptor (Homo sapiens, UniProt P08588); test: cAMP accumulation (SPA) in CHO cells transfected with human β1 adrenergic receptor; conditions: for EC50: CHO cells transfected with human β1-AR, cAMP, 15 min incubation, 10^−8 to 10^−4 M, read-out: beta-1 EC50; for beta-1 (IA) maximal response relative to isoproterenol: IA = % activity compound / % activity isoproterenol at 10^−5 M, CHO human β1 cells
T3 construct: expressed in transfected cells; host or cells: CHO cells
Protocol: as §1, §5, §2, §3, §4

T1 sequence (P13945 whole entry): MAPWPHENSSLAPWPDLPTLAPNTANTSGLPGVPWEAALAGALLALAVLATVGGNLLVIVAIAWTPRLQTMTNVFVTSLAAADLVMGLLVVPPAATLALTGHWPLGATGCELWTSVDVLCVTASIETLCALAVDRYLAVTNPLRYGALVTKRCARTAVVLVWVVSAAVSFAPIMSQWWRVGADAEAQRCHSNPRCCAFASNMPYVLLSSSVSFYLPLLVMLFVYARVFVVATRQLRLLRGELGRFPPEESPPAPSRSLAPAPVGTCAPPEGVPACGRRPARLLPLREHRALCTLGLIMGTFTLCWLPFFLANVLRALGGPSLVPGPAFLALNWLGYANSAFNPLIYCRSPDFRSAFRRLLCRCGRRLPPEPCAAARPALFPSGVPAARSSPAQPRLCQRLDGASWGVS
T3 sequence (P08588 whole entry): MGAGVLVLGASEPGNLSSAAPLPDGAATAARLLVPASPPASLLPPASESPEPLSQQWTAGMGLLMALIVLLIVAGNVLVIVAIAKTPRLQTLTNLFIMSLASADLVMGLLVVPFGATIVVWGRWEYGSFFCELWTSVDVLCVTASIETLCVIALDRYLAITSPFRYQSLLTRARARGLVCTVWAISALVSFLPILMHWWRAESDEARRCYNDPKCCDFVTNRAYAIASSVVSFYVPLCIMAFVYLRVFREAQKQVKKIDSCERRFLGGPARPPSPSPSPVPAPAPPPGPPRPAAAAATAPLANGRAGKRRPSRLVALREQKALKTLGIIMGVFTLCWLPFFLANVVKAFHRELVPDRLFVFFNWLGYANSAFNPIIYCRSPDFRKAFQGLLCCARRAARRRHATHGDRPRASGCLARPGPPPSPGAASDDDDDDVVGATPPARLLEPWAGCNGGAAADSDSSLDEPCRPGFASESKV
T2 sequence (P07550 whole entry): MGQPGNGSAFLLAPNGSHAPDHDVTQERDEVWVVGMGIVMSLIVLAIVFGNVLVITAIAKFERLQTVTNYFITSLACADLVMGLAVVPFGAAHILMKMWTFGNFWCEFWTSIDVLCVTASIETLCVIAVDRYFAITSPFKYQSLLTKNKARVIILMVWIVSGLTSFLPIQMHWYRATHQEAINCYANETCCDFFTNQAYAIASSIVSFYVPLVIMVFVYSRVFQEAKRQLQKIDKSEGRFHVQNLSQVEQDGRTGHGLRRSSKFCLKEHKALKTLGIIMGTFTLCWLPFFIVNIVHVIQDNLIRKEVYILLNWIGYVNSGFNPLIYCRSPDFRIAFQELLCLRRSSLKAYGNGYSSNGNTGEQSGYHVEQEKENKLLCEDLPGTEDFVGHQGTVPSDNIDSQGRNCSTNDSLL

Structure (SMILES)	EC50 [1] [nM]	beta-3 (IA) maximal response relative to isoproterenol [1]	beta-2 (IA) maximal response relative to isoproterenol [2]	EC50 [3] [nM]	beta-1 (IA) maximal response relative to isoproterenol [3]	EC50 [2] [µM]
CS(=O)(=O)Nc1cc(C(O)CNC2CCN(c3ccc(S(=O)(=O)NCc4ccccc4)cc3)CC2)ccc1O (stereo not shown) [Example 5, N-Benzyl-4-{4-[2-hydroxy-2-(4-hydroxy-3-methanesulfonylamino-phenyl)-ethylamino]-piperidin-1-yl}-benzenesulfonamide]	16	(0.98)	(0.07)	2200	(0.59)	–
COc1ccc(NS(=O)(=O)c2ccc(N3CCC(NC[C@H](O)COc4cccc5[nH]c(=O)[nH]c45)CC3)cc2)cc1OC [Example 7, N-(3,4-Dimethoxy-phenyl)-4-{4-[(2S)-2-hydroxy-3-(2-oxo-2,3-dihydro-1H-benzoimidazol-4-yloxy)-propylamino]-piperidin-1-yl}-benzenesulfonamide]	20	(0.8)	(0.01)	600	(0.15)	–
CS(=O)(=O)Nc1cc(C(O)CNC2CCN(c3ccc(S(=O)(=O)N4CCCC4C(=O)O)cc3)CC2)ccc1O (stereo not shown) [Example 18, 1-(4-{4-[2-Hydroxy-2-(4-hydroxy-3-methanesulfonylamino-phenyl)-ethylamino]-piperidin-1-yl}-benzenesulfonyl)-pyrrolidine-2-carboxylic Acid]	41	(0.99)	(0.55)	–	(0.29)	1
CCCCN(CC(=O)O)S(=O)(=O)c1ccc(N2CCC(NC[C@H](O)c3ccc(O)c(NS(C)(=O)=O)c3)CC2)cc1 [Example 20, [Butyl-(4-{4-[(2R)-2-hydroxy-2-(4-hydroxy-3-methanesulfonylamino-phenyl)-ethylamino]-piperidin-1-yl}-benzenesulfonyl)-amino]-acetic Acid]	10	(1)	(0.3)	10000	(0.4)	10
CCOC(=O)CN(C)S(=O)(=O)c1ccc(N2CCC(NC[C@H](O)c3ccc(O)c(NS(C)(=O)=O)c3)CC2)cc1 [Example 25, [(4-{4-[(2R)-2-Hydroxy-2-(4-hydroxy-3-methanesulfonylamino-phenyl)-ethylamino]-piperidin-1-yl}-benzenesulfonyl)-methyl-amino]-acetic Acid Ethyl Ester]	52	(1)	(0.37)	1000	(0.63)	1.43
CS(=O)(=O)Nc1cc([C@@H](O)CNC2CCN(c3ccc(S(=O)(=O)NCC4CC4)cc3)CC2)ccc1O [Example 26, N-Cyclopropylmethyl-4-{4-[(2R)-2-hydroxy-2-(4-hydroxy-3-methanesulfonylamino-phenyl)-ethylamino]-piperidin-1-yl}-benzenesulfonamide]	23	(0.98)	(0.29)	240	(0.41)	0.27
CC(C)CNS(=O)(=O)c1ccc(N2CCC(NC[C@H](O)c3ccc(O)c(NS(C)(=O)=O)c3)CC2)cc1 [Example 27, 4-{4-[(2R)-2-Hydroxy-2-(4-hydroxy-3-methanesulfonylamino-phenyl)-ethylamino]-piperidin-1-yl}-N-isobutyl-benzenesulfonamide]	2	(1)	(0.29)	420	(0.22)	0.54
CCOC(=O)CN(CC1CC1)S(=O)(=O)c1ccc(N2CCC(NC[C@H](O)c3ccc(O)c(NS(C)(=O)=O)c3)CC2)cc1 [Example 28, [Cyclopropylmethyl-(4-{4-[(2R)-2-hydroxy-2-(4-hydroxy-3-methanesulfonylamino-phenyl)-ethylamino]-piperidin-1-yl}-benzenesulfonyl)-amino]-acetic Acid Ethyl Ester]	2	(0.94)	(0.85)	–	(0.24)	6.6
CC(C)NS(=O)(=O)c1ccc(N2CCC(NC[C@H](O)c3ccc(O)c(NS(C)(=O)=O)c3)CC2)cc1 [Example 29, 4-{4-[(2R)-2-Hydroxy-2-(4-hydroxy-3-methanesulfonylamino-phenyl)-ethylamino]-piperidin-1-yl}-N-isopropyl-benzenesulfonamide]	7	(1.3)	(0.48)	2000	(0.57)	2.9
CCOC(=O)[C@H]1CCCN1S(=O)(=O)c1ccc(N2CCC(NC[C@H](O)c3ccc(O)c(NS(C)(=O)=O)c3)CC2)cc1 [Example 30, 1-(4-{4-[(2R)-2-Hydroxy-2-(4-hydroxy-3-methanesulfonylamino-phenyl)-ethylamino]-piperidin-1-yl}-benzenesulfonyl)-pyrrolidine-(2R)-2-carboxylic Acid Ethyl Ester]	4	(1.2)	(0.36)	9800	(1.1)	3.6
CS(=O)(=O)Nc1cc([C@@H](O)CNC2CCN(c3ccc(S(=O)(=O)N(CC(=O)O)CC4CC4)cc3)CC2)ccc1O [Example 31, [Cyclopropylmethyl-(4-{4-[(2R)-2-hydroxy-2-(4-hydroxy-3-methanesulfonylamino-phenyl)-ethylamino]-piperidin-1-yl}-benzenesulfonyl)-amino]-acetic Acid]	7	(1.2)	(0.33)	20000	(0.96)	12
CCOC(=O)CN(CC(C)C)S(=O)(=O)c1ccc(N2CCC(NC[C@H](O)c3ccc(O)c(NS(C)(=O)=O)c3)CC2)cc1 [Example 32, [(4-{4-[(2R)-2-Hydroxy-2-(4-hydroxy-3-methanesulfonylamino-phenyl)-ethylamino]-piperidin-1-yl}-benzenesulfonyl)-isobutyl-amino]-acetic Acid Ethyl Ester]	4	(1)	(0.57)	6700	(0.48)	10
CN(CC(=O)O)S(=O)(=O)c1ccc(N2CCC(NC[C@H](O)c3ccc(O)c(NS(C)(=O)=O)c3)CC2)cc1 [Example 33, [(4-{4-[(2R)-2-Hydroxy-2-(4-hydroxy-3-methanesulfonylamino-phenyl)-ethylamino]-piperidin-1-yl}-benzenesulfonyl)-methyl-amino]-acetic Acid]	18	(1)	(0.15)	25000	(0.66)	–
